Measured values from PubChem BioAssay (NCI).
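These data come from cells grown in 96-well plates and exposed to compound for 48 hours at five concentrations. The concentration for full growth arrest is given as TGI.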

Assays:
Assay in all cases: NCI anticancer screen, dose series, 48 h
[1] = test system: SNB-19 CNS
[2] = test system: CCRF-CEM leukemia
[3] = test system: HCT-15 colon
[4] = test system: SN12C renal
[5] = test system: M14 melanoma
[6] = test system: UO-31 renal
[7] = test system: MOLT-4 leukemia
[8] = test system: SF-539 CNS
[9] = test system: SR leukemia
[10] = test system: MDA-MB-231 breast
[11] = test system: TK-10 renal
[12] = test system: SK-MEL-2 melanoma
[13] = test system: SK-MEL-5 melanoma
[14] = test system: MCF7 breast
[15] = test system: RPMI-8226 leukemia
[16] = test system: T-47D breast
[17] = test system: BT-549 breast
[18] = test system: SF-295 CNS
[19] = test system: COLO 205 colon
[20] = test system: K-562 leukemia
[21] = test system: HOP-92 NSCLC
[22] = test system: NCI-H226 lung
[23] = test system: NCI-H522 lung
[24] = test system: A549 NSCLC
[25] = test system: MDA-N
[26] = test system: LOX IMVI melanoma
[27] = test system: SF-268 CNS
[28] = test system: HS 578T breast
[29] = test system: OVCAR-8 ovarian
[30] = test system: NCI-H460 lung
[31] = test system: OVCAR-3 ovarian
[32] = test system: DU-145 prostate
[33] = test system: HCC-2998 colon
[34] = test system: EKVX NSCLC
[35] = test system: ACHN renal
[36] = test system: MDA-MB-435
[37] = test system: NCI/ADR-RES ovarian
[38] = test system: OVCAR-4 ovarian
[39] = test system: SK-MEL-28 melanoma
[40] = test system: CAKI-1 renal
[41] = test system: A498 renal
[42] = test system: UACC-257 melanoma
[43] = test system: U251 CNS
[44] = test system: RXF 393 renal
[45] = test system: SNB-75 CNS
[46] = test system: KM12 colon
[47] = test system: PC-3 prostate
[48] = test system: IGROV1 ovarian
[49] = test system: SW-620 colon
[50] = test system: MALME-3M melanoma
[51] = test system: UACC-62 melanoma
[52] = test system: 786-0 renal
[53] = test system: OVCAR-5 ovarian
[54] = test system: HL-60(TB) leukemia
[55] = test system: HOP-62 NSCLC
[56] = test system: SNB-78 CNS
[57] = test system: XF 498 CNS
[58] = test system: HCT-116 colon
[59] = test system: HT29 colon
[60] = test system: LXFL 529 NSCLC
[61] = test system: NCI-H23 lung
[62] = test system: DLD-1 colon
[63] = test system: KM20L2 colon
[64] = test system: SK-OV-3 ovarian

Measured: TGI

C=C(C)[C@H]1C2=CC(C)=C(O2)[C@@H](O)[C@H](C(=C)C)CCC2=C[C@H]1OC2=O
not listed: [55] | [56] | [57] | [58] | [59] | [60] | [61] | [62] | [63] | [64]
> 100 µM: all other assays above

COc1cc2c(cc1OC)C1Cc3ccc(OC)c(OC)c3C[N+]1([O-])CC2 (stereo not given)
not listed: [3] | [9] | [10] | [14] | [16] | [17] | [19] | [21] | [22] | [25] | [26] | [28] | [32] | [36] | [37] | [44] | [47] | [48] | [51] | [54] | [64]
> 100 µM: all other assays above

Nn1c(=O)[nH]c2ncn(Cc3ccccc3)c2c1=O
not listed: [15] | [26] | [56] | [57] | [60] | [62] | [63]
> 100 µM: all other assays above

Cc1ccc(NC(=O)/C(Cc2cc(=O)oc3cc(O)ccc23)=N\NC(C)(C)C)cc1C
not listed: [11] | [23] | [34] | [45] | [48] | [50] | [53] | [55] | [56] | [57] | [60] | [62] | [63]
> 100 µM: all other assays above
